Assay results taken from patent US20170152239A1, “BENZAMIDE AND HETEROBENZAMIDE COMPOUNDS” (PFIZER INC., priority 2012, published 2017).

target: WT EZH2 (EZH2 4 protein complex: EZH2, EED, SUZ12, RbAp48) (Homo sapiens, UniProt O75530+Q09028+Q15022+Q15910); assay: WT EZH2 nucleosome assay; type: biochemical; settings: nucleosome assay, 5 nM EZH2 4-protein complex, 1.5 μM SAM; read-out: WT EZH2 IC50
Description: Nucleosome Assay Protocol:
A. Compound preparation • 1. Prepare 10 mM stock solutions in 100% DMSO from solid material • 2. Serial dilute 10 mM compound stocks either 2 or 3-fold in 100% DMSO to generate compounds for 11 point dose response
B. Reagent preparation • 1. Prepare 1× assay buffer containing 100 mM Tris pH 8.5, 4 mM DTT and 0.01% Tween-20 • 2. Dilute purified HeLA oligonucleosomes and recombinant histone H1 (New England Biolabs) in assay buffer to 1.67×. • 3. Dilute EZH2 4 protein complex (EZH2, EED, SUZ12, RbAp48) to 3.5× in assay buffer • 4. Prepare 10×^3H SAM solution in assay buffer using 0.94 μCi/well of radioactive SAM (Perkin Elmer) and sufficient non-labeled SAM (Sigma) for 1.5 μM final concentration. • 5. Dilute TCA to 20% in DI water
C. Enzyme reaction • 1. Final reaction conditions are 5 nM EZH2 4-protein complex, 1.5 μM SAM, 25 μg/mL oligonucleosomes, 50 nM rH1 in a 50 μl reaction volume. • 2. Add 1 μl of diluted compound to the assay plate (96-well V-bottom polypropylene plates) or 1 μl of DMSO for control wells. • 3. Add 30 μl of nucleosomes to the assay plate • 4. Add 14 μl of EZH2 4 protein complex to the assay plate • 5. Add 5 μl of ^3H SAM to start the reaction. • 6. Stop the reaction after 60 minutes with the addition of 100 μl of 20% TCA • 7. Transfer 150 μl of quenched reaction into a prepared filterplate (Millipore #MSIPN4B10) • 8. Apply vacuum to the filterplate to filter the reaction mix through the membrane. • 9. Wash the filterplate with 8×200 μl of PBS, blot dry and dry in an oven for 30 minutes • 10. Add 50 μl of microscint-20 scintillation fluid (Perkin Elmer) to each well, wait 30 minutes and count on a liquid scintillation counter.
D. Data analysis • 1. IC50 values were determined by fitting the data to a 4-parameter IC50 equation using proprietary curve fitting software.
Wild type (WT) EZH2% Effect at 20 μM and IC50 values (μM) generated in WT EZH2 or EZH2PRC2 mutant Y641N nucleosome assays are provided in Table 3 below. A blank entry in the table indicates the data was not generated in that assay.

Sequence of WT EZH2 (EZH2 4 protein complex: EZH2, EED, SUZ12, RbAp48) (Q15910 whole entry): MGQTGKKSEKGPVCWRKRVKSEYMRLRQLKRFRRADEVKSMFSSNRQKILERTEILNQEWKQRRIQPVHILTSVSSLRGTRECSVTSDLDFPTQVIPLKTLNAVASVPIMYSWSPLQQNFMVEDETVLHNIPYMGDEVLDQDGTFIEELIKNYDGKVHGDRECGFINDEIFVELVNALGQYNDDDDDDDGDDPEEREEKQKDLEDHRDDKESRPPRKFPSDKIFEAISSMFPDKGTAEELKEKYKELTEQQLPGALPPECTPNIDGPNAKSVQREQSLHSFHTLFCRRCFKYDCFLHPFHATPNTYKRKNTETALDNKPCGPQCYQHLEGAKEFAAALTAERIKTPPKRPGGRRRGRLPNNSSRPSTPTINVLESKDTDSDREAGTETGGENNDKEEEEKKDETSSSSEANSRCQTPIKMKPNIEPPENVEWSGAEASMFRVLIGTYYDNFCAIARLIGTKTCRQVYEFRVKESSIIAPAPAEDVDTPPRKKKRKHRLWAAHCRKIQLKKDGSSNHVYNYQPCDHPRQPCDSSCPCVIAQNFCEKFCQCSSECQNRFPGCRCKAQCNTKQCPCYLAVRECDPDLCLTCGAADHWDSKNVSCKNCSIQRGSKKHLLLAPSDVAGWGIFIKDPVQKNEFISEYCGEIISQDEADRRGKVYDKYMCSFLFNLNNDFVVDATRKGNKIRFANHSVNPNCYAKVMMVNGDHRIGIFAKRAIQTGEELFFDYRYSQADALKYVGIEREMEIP
Sequence of WT EZH2 (EZH2 4 protein complex: EZH2, EED, SUZ12, RbAp48) (O75530 whole entry partner): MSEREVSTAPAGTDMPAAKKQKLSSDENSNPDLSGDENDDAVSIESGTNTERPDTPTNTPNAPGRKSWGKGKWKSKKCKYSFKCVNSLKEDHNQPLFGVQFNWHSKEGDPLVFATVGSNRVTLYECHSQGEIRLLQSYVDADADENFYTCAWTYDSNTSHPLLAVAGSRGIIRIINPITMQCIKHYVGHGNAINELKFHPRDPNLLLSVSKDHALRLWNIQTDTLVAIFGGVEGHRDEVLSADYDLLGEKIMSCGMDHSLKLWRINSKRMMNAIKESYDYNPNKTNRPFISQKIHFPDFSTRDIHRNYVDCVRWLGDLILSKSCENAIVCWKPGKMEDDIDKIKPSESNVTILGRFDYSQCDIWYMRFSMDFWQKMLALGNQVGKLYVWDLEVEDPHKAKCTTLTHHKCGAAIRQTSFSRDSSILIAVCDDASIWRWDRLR
Sequence of WT EZH2 (EZH2 4 protein complex: EZH2, EED, SUZ12, RbAp48) (Q15022 whole entry partner): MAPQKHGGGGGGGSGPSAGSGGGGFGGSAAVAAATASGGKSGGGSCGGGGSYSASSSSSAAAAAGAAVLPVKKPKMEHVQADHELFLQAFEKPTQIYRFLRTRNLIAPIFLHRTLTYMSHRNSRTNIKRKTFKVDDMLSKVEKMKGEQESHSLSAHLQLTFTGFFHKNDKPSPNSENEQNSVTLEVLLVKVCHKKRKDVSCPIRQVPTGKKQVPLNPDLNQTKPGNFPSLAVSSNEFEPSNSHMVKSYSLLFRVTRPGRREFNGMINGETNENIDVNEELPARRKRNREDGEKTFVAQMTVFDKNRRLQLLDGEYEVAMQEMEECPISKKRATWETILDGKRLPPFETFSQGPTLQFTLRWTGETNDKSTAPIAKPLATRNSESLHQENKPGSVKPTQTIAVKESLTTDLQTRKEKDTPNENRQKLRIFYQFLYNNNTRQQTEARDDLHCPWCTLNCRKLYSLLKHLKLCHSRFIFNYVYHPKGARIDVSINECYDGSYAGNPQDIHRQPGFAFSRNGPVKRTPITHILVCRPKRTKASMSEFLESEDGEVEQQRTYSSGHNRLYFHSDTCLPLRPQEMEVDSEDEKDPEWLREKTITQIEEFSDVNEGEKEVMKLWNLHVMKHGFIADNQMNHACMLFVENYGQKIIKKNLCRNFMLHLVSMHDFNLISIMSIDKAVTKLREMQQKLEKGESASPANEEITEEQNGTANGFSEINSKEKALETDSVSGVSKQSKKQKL
Sequence of WT EZH2 (EZH2 4 protein complex: EZH2, EED, SUZ12, RbAp48) (Q09028 whole entry partner): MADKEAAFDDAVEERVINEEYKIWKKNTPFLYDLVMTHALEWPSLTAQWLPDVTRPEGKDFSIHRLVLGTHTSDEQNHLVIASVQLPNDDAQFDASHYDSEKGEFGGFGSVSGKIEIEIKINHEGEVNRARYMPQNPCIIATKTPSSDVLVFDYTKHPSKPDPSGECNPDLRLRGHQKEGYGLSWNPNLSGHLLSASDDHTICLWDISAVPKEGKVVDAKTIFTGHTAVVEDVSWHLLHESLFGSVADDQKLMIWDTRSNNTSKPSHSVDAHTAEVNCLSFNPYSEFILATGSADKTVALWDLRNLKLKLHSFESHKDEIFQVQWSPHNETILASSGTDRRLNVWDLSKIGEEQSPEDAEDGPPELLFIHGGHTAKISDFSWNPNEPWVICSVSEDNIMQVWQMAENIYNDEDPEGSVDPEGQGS

| Structure (SMILES) | IC50 [nM] |
| --- | --- |
| Cc1cc(C)c(CNC(=O)c2cccc(-c3c(C)cnn3C)c2C)c(=O)[nH]1 [Example 1, N-[(4,6-dimethyl-2-oxo-1,2-dihydropyridin-3-yl)methyl]-3-(1,4-dimethyl-1H-pyrazol-5-yl)-2-methylbenzamide] | 470 |
| Cc1cc(C)c(CNC(=O)c2cccc(-c3c(C)n[nH]c3C)c2C)c(=O)[nH]1 [Example 3, N-[(4,6-dimethyl-2-oxo-1,2-dihydropyridin-3-yl)methyl]-3-(3,5-dimethyl-1H-pyrazol-4-yl)-2-methylbenzamide] | 920 |
| Cc1cc(C)c(CNC(=O)c2cccc(-c3c(C)ncn3C)c2C)c(=O)[nH]1 [Example 4, 3-(1,4-dimethyl-1H-imidazol-5-yl)-N-[(4,6-dimethyl-2-oxo-1,2-dihydropyridin-3-yl)methyl]-2-methylbenzamide] | 230 |
| Cc1cc(C)c(CNC(=O)c2cc(Cl)cc(-c3c(C)cnn3C)c2C)c(=O)[nH]1 [Example 7, 5-chloro-N-[(4,6-dimethyl-2-oxo-1,2-dihydropyridin-3-yl)methyl]-3-(1,4-dimethyl-1H-pyrazol-5-yl)-2-methylbenzamide] | 220 |
| CCCc1cc(C)[nH]c(=O)c1CNC(=O)c1cc(Cl)cc(-c2ccnn2C)c1C [Example 8, 5-chloro-2-methyl-N-[(6-methyl-2-oxo-4-propyl-1,2-dihydropyridin-3-yl)methyl]-3-(1-methyl-1H-pyrazol-5-yl)benzamide] | 880 |
| Cc1cc(C)c(CNC(=O)c2cccc(-c3ccnn3C)c2Cl)c(=O)[nH]1 [Example 9, 2-chloro-N-[(4,6-dimethyl-2-oxo-1,2-dihydropyridin-3-yl)methyl]-3-(1-methyl-1H-pyrazol-5-yl)benzamide] | 700 |
| Cc1cc(C)c(CNC(=O)c2cccc(-c3c(Cl)cnn3C)c2C)c(=O)[nH]1 [Example 10, 3-(4-chloro-1-methyl-1H-pyrazol-5-yl)-N-[(4,6-dimethyl-2-oxo-1,2-dihydropyridin-3-yl)methyl]-2-methylbenzamide] | 380 |
| Cc1cc(C)c(CNC(=O)c2cccc(-c3c(F)cnn3C)c2C)c(=O)[nH]1 [Example 11, N-[(4,6-dimethyl-2-oxo-1,2-dihydropyridin-3-yl)methyl]-3-(4-fluoro-1-methyl-1H-pyrazol-5-yl)-2-methylbenzamide] | 360 |
| CCn1ncc(C)c1-c1cccc(C(=O)NCc2c(C)cc(C)[nH]c2=O)c1C [Example 12, N-[(4,6-dimethyl-2-oxo-1,2-dihydropyridin-3-yl)methyl]-3-(1-ethyl-4-methyl-1H-pyrazol-5-yl)-2-methylbenzamide] | 110 |
| Cc1cc(C)c(CNC(=O)c2cc(-c3cncnc3)cc(-c3ccnn3C)c2C)c(=O)[nH]1 [Example 17, N-[(4,6-dimethyl-2-oxo-1,2-dihydropyridin-3-yl)methyl]-2-methyl-3-(1-methyl-1H-pyrazol-5-yl)-5-pyrimidin-5-ylbenzamide] | 160 |
| Cc1cc(C)c(CNC(=O)c2cc(-c3cnn(C)c3)cc(-c3ccnn3C)c2C)c(=O)[nH]1 [Example 18, N-[(4,6-dimethyl-2-oxo-1,2-dihydropyridin-3-yl)methyl]-2-methyl-5-(1-methyl-1H-pyrazol-4-yl)-3-(1-methyl-1H-pyrazol-5-yl)benzamide] | 140 |
| Cc1cc(C)c(CNC(=O)c2cc(-c3ccc(N)nc3)cc(-c3ccnn3C)c2C)c(=O)[nH]1 [Example 19, 5-(6-aminopyridin-3-yl)-N-[(4,6-dimethyl-2-oxo-1,2-dihydropyridin-3-yl)methyl]-2-methyl-3-(1-methyl-1H-pyrazol-5-yl)benzamide] | 41 |
| Cc1cc(C)c(CNC(=O)c2cc(C3=CCOCC3)cc(-c3ccnn3C)c2C)c(=O)[nH]1 [Example 20, 5-(3,6-dihydro-2H-pyran-4-yl)-N-[(4,6-dimethyl-2-oxo-1,2-dihydropyridin-3-yl)methyl]-2-methyl-3-(1-methyl-1H-pyrazol-5-yl)benzamide] | 190 |
